Like-named read-outs stand apart in the source and are kept apart here.
What was measured:
ARPE-19 = experiment: Cell viability (MTT) assay, 24 h, noncancerous cells; type: cell-based, human; conditions: n = 9, noncancerous retinal epithelia, read-out: IC50 ± SD, ARPE-19
Description: (§1) All cells were treated with compounds for 24 h, and cell viability was determined via the MTT assay. […] The nonfluorinated benzyl–imidazole complex [Ag2(L5)2](PF6)2 was synthesized and screened to determine if the fluorine has any influence on cytotoxicity.
(§2) All cytotoxicity assays were conducted using human cell lines: breast adenocarcinomas (MDA-MB-231 and MCF-7) and non-cancerous epithelial retinal (ARPE-19) cell lines. All cell lines were routinely maintained as monolayer cultures in an appropriate complete medium: MCF-7 and ARPE-19 in high glucose DMEM complete medium (including 10% FBS, 1 mM sodium pyruvate, 2 mM L-glutamine and 1% pen-strep) and MDA-MB-231 in RPMI-1640 complete medium (including 10% FBS, 1 mM sodium pyruvate, 2 mM L-glutamine and 1% pen-strep) and grown in either T-25 or T-75 flasks at 37 °C and 5% CO2. Prior to chemosensitivity studies, cell monolayers were passaged using Trypsin-EDTA (0.05%) and diluted to a concentration of 4 × 10^4 cells/mL. All assays were conducted using 96-well plates, in which 100 μL of the cell suspension was added for 24 h at 37 °C and 5% CO2 and then 100 μL of compound/media dilutions for a further 24 h (compound stocks were made using sterile DMSO at 100 mM prior to dilution and a maximum of 0.1% DMSO used in each assay).

MCF-7 = experiment: Cell viability (MTT) assay, 24 h; type: cell-based, human; conditions: for IC50: 24 h treatment, MTT, n = 9, read-out: IC50 ± SD, MCF-7
Description: as §1, §2

MDA-MB-231 = experiment: Cell viability (MTT) assay, 24 h; type: cell-based, human; conditions: for IC50: 24 h treatment, MTT, n = 9, read-out: IC50 ± SD, MDA-MB-231; for MCF-7/MDA-MB-231 SR (selectivity ratio): ratio of IC50 MCF-7 versus MDA-MB-231
Description: as §1, §2

DNA = system: DNA; set-up: method as in PMID 27060216; conditions: cited from earlier work
[1] = Homo sapiens, ARPE-19, 24 h treatment

IC50 (MCF-7; Homo sapiens, MCF7) | IC50 (MDA-MB-231; Homo sapiens, MDA-MB-231) | IC50 (MCF-7) | IC50 (MDA-MB-231) | Structure (SMILES) | IC50 (ARPE-19; [1]) | IC50 (ARPE-19; 24 h treatment) | Selectivity index (SI) MCF-7 vs ARPE-19 (MCF-7; SI > 1 indicates selectivity for the breast cancer line, * = minimum value) | MCF-7/MDA-MB-231 SR (selectivity ratio) (MDA-MB-231) | Binding constant to DNA (DNA)
> 100 µM | > 100 µM | – | – | Fc1ccc(C[n+]2cn(Cn3c[n+](Cc4ccc(F)cc4)c4ccccc43)c3ccccc32)cc1 [H2L4(PF6)2, 1,1′-Bis-(4-fluorobenzyl)-3,3′-methylenedibenzimidazolium dihexafluorophosphate] | > 100 µM | – | – | – | –
– | – | 54 ± 3 µM | > 100 µM | [NH2][Pt]([NH2])([Cl])[Cl] [CDDP, cisplatin, reference compound] | – | > 100 µM | ≥ 1.84 | < 0.54 | –
– | – | – | – | COc1cccc2c1C(=O)c1c(O)c3c(c(O)c1C2=O)C[C@@](O)(C(=O)CO)C[C@@H]3O[C@H]1C[C@H](N)[C@H](O)[C@H](C)O1 [doxorubicin] | – | – | – | – | 2.33 ± 0.33 × 10^4 M^–1
> 100 µM | 42.6 ± 0.05 µM | – | – | Fc1ccc(Cn2c[n+](Cc3ccc(F)cc3)c3ccccc32)cc1 [HL2(PF6), 1,3-Bis-(4-fluorobenzyl)benzimidazolium hexafluorophosphate] | > 100 µM | – | – | > 2.35 | –

From paper PMC11523213, “Fluorinated N-Heterocyclic Carbene Silver(I) Complexes with High Cancer Cell Selectivity” (Organometallics, 2024)
